Measured values from PubChem BioAssay (NCI).
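Five compound concentrations were applied to cells in 96-well plates for 48 hours; endpoints were derived by simple linear interpolation of the resulting dose-response curve. Abbreviation: GI50, concentration required for 50% inhibition of growth. TGI: concentration producing complete growth inhibition.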

What was measured:
Assay in all cases: NCI anticancer screen, dose series, 48 h
CCRF-CEM leukemia = system: CCRF-CEM leukemia
EKVX NSCLC = system: EKVX NSCLC
K-562 leukemia = system: K-562 leukemia
MCF7 breast = system: MCF7 breast
MDA-MB-231 breast = system: MDA-MB-231 breast
NCI-H522 lung = system: NCI-H522 lung
SK-MEL-5 melanoma = system: SK-MEL-5 melanoma
TK-10 renal = system: TK-10 renal
UACC-62 melanoma = system: UACC-62 melanoma
DU-145 prostate = system: DU-145 prostate

SMILES | TGI (CCRF-CEM leukemia) [µM] | TGI (EKVX NSCLC) [µM] | TGI (K-562 leukemia) [µM] | TGI (MCF7 breast) [µM] | TGI (MDA-MB-231 breast) [µM] | TGI (NCI-H522 lung) [µM] | TGI (SK-MEL-5 melanoma) [µM] | TGI (TK-10 renal) [µM] | TGI (UACC-62 melanoma) [µM] | GI50 (DU-145 prostate) [µM] | TGI (DU-145 prostate) [µM] | GI50 (EKVX NSCLC) [µM] | GI50 (MCF7 breast) [µM] | GI50 (MDA-MB-231 breast) [µM] | GI50 (NCI-H522 lung) [µM] | GI50 (TK-10 renal) [µM] | GI50 (CCRF-CEM leukemia) [µM] | GI50 (SK-MEL-5 melanoma) [µM] | GI50 (UACC-62 melanoma) [µM]
CCc1n[nH]c(=O)n1CCCCCCCCCCCCn1c(CC)n[nH]c1=O | 64.3 | > 100 | > 100 | > 100 | > 100 | > 100 | 32.8 | > 100 | 61.3 | – | – | – | – | – | – | – | – | – | –
CN1CCC(CNc2cc(C3(C(=O)Nc4cc(C(=O)Nc5ccc(Cl)c(C(F)(F)F)c5)ccc4F)CC3)ncn2)CC1 | – | 6.62 | – | 5.24 | 2.99 | 4.55 | – | 12.8 | – | 3.99 | 15.8 | 2.46 | 1.97 | 1.42 | 2.01 | 3.89 | – | – | –
CN(C)CCNc1ccc2c(=O)n(CCN(C)C)c(=O)n3c4ccc(O)cc4c(=O)c1c23 | < 0.01 | 0.57 | – | 0.634 | 0.12 | 0.221 | 0.211 | 1.21 | 0.147 | – | 0.0781 | – | – | – | – | – | – | – | –
Cn1c(=O)c2c(nc3n(CC(O)CCl)c(=O)ccn23)n(C)c1=O (stereo not drawn) | > 100 | > 100 | > 100 | > 100 | > 100 | > 100 | > 100 | > 100 | > 100 | – | > 100 | – | – | – | – | – | – | – | –
NC(=O)Nc1c(Cl)cc(S(N)(=O)=O)cc1Cl | > 100 | > 100 | > 100 | > 100 | > 100 | > 100 | > 100 | > 100 | > 100 | – | > 100 | – | – | – | – | – | – | – | –
O=c1[nH]c(Nc2ccccc2)nc2c1ncn2CC(O)CSCCO (stereo not drawn) | > 100 | > 100 | – | > 100 | > 100 | > 100 | > 100 | > 100 | > 100 | – | > 100 | – | – | – | – | – | – | – | –
C#CCNC(CSSCC(N)C(=O)O)C(=O)O (stereo not drawn) | > 100 | > 100 | – | > 100 | > 100 | > 100 | > 100 | > 100 | > 100 | – | > 100 | – | – | – | – | – | – | – | –
O=c1[nH]c2nc3ccccc3c(=O)n2/c1=C/c1ccc(Cl)cc1 | > 100 | – | – | > 100 | > 100 | 71.8 | – | > 100 | > 100 | – | > 100 | – | – | – | – | – | – | – | –
O=C(/C=C(/C=C/c1ccc2[nH]ccc2c1)OB(F)F)/C=C/c1ccc2[nH]ccc2c1 | > 100 | 86.9 | – | 15 | > 100 | – | 13.3 | > 100 | 5.02 | 1.64 | 4.2 | 3.17 | 0.376 | 3.38 | – | 4.78 | 0.423 | 2.98 | 1.85
Cc1ccc2c(c1)-c1nc(N)c(C#N)c(-c3ccc(Cl)cc3)c1CCS2(=O)=O | 72 | – | – | – | > 100 | > 100 | 40.2 | > 100 | > 100 | – | > 100 | – | – | – | – | – | – | – | –
